Read-outs that look alike come from different tables or passages of the source.
Assays:
[1] = Clarity of test compound solutions at […] (aqueous solubility); settings: for solubility at 24 h: pH 4, aqueous buffer; for Aqueous Solubility pH~7 (visual clarity): […] active-form equivalents, pH 7 (50 mM phosphate), after 24 hours
Protocol: A 50-mg/mL solution of a compound of formula (I) or a compound of formula (II) in H2O was titrated with 0.1 M NaOH until pH reached 5.7-6.1. Any solid that precipitated was filtered. The remaining solutions or phase-separated oil/H2O mixtures were freeze-dried to produce zwitterions as fluffy solids.
The aqueous solubility of Compounds #14, #15 and #16 were determined by a modified procedure. In these cases, the samples were targeted at a pH of 4 and 7 and were measured exclusively using 100 mM phosphate buffers. For both pH's, measured samples were initially prepared at ˜3 mg/ml and ˜10 mg/ml concentrations and for samples that dissolved rapidly, additional compound was added to the solution until saturated solutions were obtained.

[2] = tested on: Staphylococcus aureus (OC8525), a methicillin-resistant strain (MRSA); experiment: In vivo efficacy in a mouse systemic infection model; settings: for ED50: Staphylococcus aureus, 72 h, Swiss Webster mice infected i.p. with MRSA, 3 day survival, normalized to parent content; for % Survival: i.v., single dose level, mice
Protocol: Female Swiss Webster mice weighing between 20-25 g were infected intraperitoneally with approximately 5×10^5 colony forming units (CFU) Staphylococcus aureus (OC8525), a methicillin-resistant strain (MRSA), in 7% mucin. One hour later, the animals were given the test compound intravenously or orally in a dose volume of 0.2 mL. Each animal test group consisted of eight animals. The test compounds were prepared immediately before dosing in 5% dextrose in water (D5W) and diluted further in D5W for i.v. and p.o. administration. The mice were observed over a three day period and ED50 values were calculated from the resulting % survival curves (see Table 13, below). The measured ED50 values were normalized to the content of (E)-7-(3-(2-amino-1-fluoroethylidene)piperidin-1-yl)-1-cyclopropyl-6-fluoro-8-methoxy-4-oxo-1,4-dihydroquinoline-3-carboxylic acid. For some compounds, in vivo efficacy was determined by testing a group of eight mice at a single dose level only. In these cases, the data presented in Table 13, below are reported as percent survival at the designated dose.

[3] = 50 mM citrate buffer, thermodynamic from solid
[4] = oral dose 1 h later, read-out: ED50 p.o.
[5] = iv, i.v. dose 1 h later, read-out: ED50 i.v.

solubility at 24 h [1, 3] [µg/mL] | Aqueous Solubility pH~7 (visual clarity) [1] | SMILES | ED50 [2, 4] [mg/kg] | ED50 [2, 5] [mg/kg] | other results
< 3300 | No | COc1c(N2CCC/C(=C(\F)CNC(=O)[C@H](C)NC(=O)[C@H](C)N)C2)c(F)cc2c(=O)c(C(=O)O)cn(C3CC3)c12.Cl [Compound 2, 7-(3-{2-[(2S)-2-((2S)-2-Amino-propionylamino)-propionylamino]-1-fluoro-ethylidene}-piperidin-1-yl)-1-cyclopropyl-6-fluoro-8-methoxy-4-oxo-1,4-dihydro-quinoline-3-carboxylic acid hydrochloride] | > 14.9 | 2.6 | 
< 3300 | No | COc1c(N2CCC/C(=C(\F)CNC(=O)[C@@H](N)Cc3ccccc3)C2)c(F)cc2c(=O)c(C(=O)O)cn(C3CC3)c12.Cl [Compound 3, 7-{3-[2-((2S)-2-Amino-3-phenyl-propionylamino)-1-fluoro-ethylidene]-piperidin-1-yl}-1-cyclopropyl-6-fluoro-8-methoxy-4-oxo-1,4-dihydro-quinoline-3-carboxylic acid hydrochloride] | > 14.8 | 1.4 | 
< 3300 | No | COc1c(N2CCC/C(=C(\F)CNC(=O)[C@@H](N)CC(=O)O)C2)c(F)cc2c(=O)c(C(=O)O)cn(C3CC3)c12.Cl [Compound 5, 7-{3-[2-((2S)-2-Amino-3-carboxy-propionylamino)-1-fluoro-ethylidene]-piperidin-1-yl}-1-cyclopropyl-6-fluoro-8-methoxy-4-oxo-1,4-dihydro-quinoline-3-carboxylic acid hydrochloride] | > 15.7 | > 3.9 | 
< 3300 | No | COc1c(N2CCC/C(=C(\F)CNC(=O)OCc3oc(=O)oc3C)C2)c(F)cc2c(=O)c(C(=O)O)cn(C3CC3)c12 [Compound 8, 1-Cyclopropyl-6-fluoro-7-{3-[1-fluoro-2-(5-methyl-2-oxo-[1,3]dioxol-4-ylmethoxycarbonylamino)-ethylidene]-piperidin-1-yl}-8-methoxy-4-oxo-1,4-dihydro-quinoline-3-carboxylic acid] |  |  | 
< 3300 | No | CCOC(=O)c1cn(C2CC2)c2c(OC)c(N3CCC/C(=C(\F)CN)C3)c(F)cc2c1=O.Cl [Compound 11, 7-[3-(2-Amino-1-fluoro-ethylidene)-piperidin-1-yl]-1-cyclopropyl-6-fluoro-8-methoxy-4-oxo-1,4-dihydro-quinoline-3-carboxylic acid ethyl ester hydrochloride] | 6.7 | 1.2 | 
 |  | CCOP(=O)(NCC(F)=C1CCCN(c2c(F)cc3c(=O)c(C(=O)[O-])cn(C4CC4)c3c2OC)C1)OCC.[Na+] [Compound 13, 1-Cyclopropyl-7-{3-[2-(diethoxy-phosphorylamino)-1-fluoro-ethylidene]-piperidin-1-yl}-6-fluoro-8-methoxy-4-oxo-1,4-dihydro-quinoline-3-carboxylic acid sodium salt] |  |  | solubility at 24 h ([1]; thermodynamic from solid): < 3300 µg/mL; solubility ([1]; pH 7.8, aqueous buffer, thermodynamic from solid): 1800 µg/mL; % Survival ([2]; at 3.8 mg/kg/day): 12.5% at 3.8 mg/kg/day

SMILES | solubility at 24 h [1, 3] [µg/mL] | Aqueous Solubility pH~7 (visual clarity) [1] | ED50 [2, 4] [mg/kg] | ED50 [2, 5] [mg/kg] | other results
CN[C@@H](C)C(=O)NC/C(F)=C1/CCCN(c2c(F)cc3c(=O)c(C(=O)O)cn(C4CC4)c3c2OC)C1.Cl [Compound 7, 1-Cyclopropyl-6-fluoro-7-{3-[1-fluoro-2-((2S)-2-methylamino-propionylamino)-ethylidene]-piperidin-1-yl}-8-methoxy-4-oxo-1,4-dihydro-quinoline-3-carboxylic acid hydrochloride] | > 3300 | Yes |  |  | % Survival ([2]; at 2.1 mg/kg/day): 0% at 2.1 mg/kg/day
COc1c(N2CCC/C(=C(\F)CNC(=O)[C@@H](N)CCCCN)C2)c(F)cc2c(=O)c(C(=O)O)cn(C3CC3)c12.Cl.Cl [Compound 9, 1-Cyclopropyl-7-{3-[2-((2S)-2,6-diamino-hexanoylamino)-1-fluoro-ethylidene]-piperidin-1-yl}-6-fluoro-8-methoxy-4-oxo-1,4-dihydro-quinoline-3-carboxylic acid dihydrochloride] | > 3300 | Yes |  |  | % Survival ([2]; at 1.9 mg/kg/day): 25% at 1.9 mg/kg/day
COc1c(N2CCC/C(=C(\F)CNC(=O)[C@H](CC(C)C)NC(=O)[C@H](C)N)C2)c(F)cc2c(=O)c(C(=O)O)cn(C3CC3)c12.Cl [Compound 10, 7-(3-{2-[(2S)-2-((2S)-2-Amino-propionylamino)-4-methyl-pentanoylamino]-1-fluoro-ethylidene}-piperidin-1-yl)-1-cyclopropyl-6-fluoro-8-methoxy-4-oxo-1,4-dihydro-quinoline-3-carboxylic acid hydrochloride] | < 3300 | No |  |  | % Survival ([2]; at 2.4 mg/kg/day): 25% at 2.4 mg/kg/day
